Test results reported in US20210069223A1, “USE OF COMPOUND FOR PREVENTING AND/OR TREATING OBESITY” (TCI CO., LTD., priority 2019, published 2021).

System: bone marrow stromal cells of mice (ATCC CRL-2749) differentiated into adipocytes
Assay: Promoting lipolysis: glycerol outside the cells measured by glycerol assay kit in adipocytes differentiated from bone marrow stromal cells
Format: cell-based
Settings: cultured at 37° C. for 7 days, OD 540 nm, FIG. 12; for lipolysis promoted in comparison with the control group: 10 μg compound per mL in the well
Procedure: According to the present embodiment, bone marrow stromal cells of mice were used for testing the efficacy of the compound TC-CA-01, the compound TCI-CA-02, the compound TC-CA-03, the compound TCI-CA-04, and the compound TCI-CA-05 for prompting lipolysis. The bone marrow stromal cells of mice were purchased from American Type Culture Collection (American ATCC®), and the No. was CRL-2749M. Before differentiation, the cells were cultured in a pre-adipocyte expansion medium, including 90 vol % of an α-MEM (Minimum Essential Medium Eagle-Alpha Modification, purchased from Gibco, No. 11095080, America) cell culture medium, and 10 vol % of fetal bovine serum (purchased from Gibco, No. 10437-028, America). In addition, 1.0 vol % of penicillin-streptomycin (purchased from Gibco, No. 15140122, America) was added. A differentiation medium was used for differentiating the bone marrow stromal cells of mice, and included 90 vol % of α-MEM cell culture medium, and 10 vol % of fetal bovine serum. In addition, 1.0 vol % of penicillin-streptomycin was added.
The bone marrow stromal cells of mice were inoculated in a culture tray by 8×10^4 cells/0.5 mL of the above pre-adipocyte expansion medium in each well. Culture was performed at 37° C. for 7 days. The culture medium in each well was replaced by the above mentioned fresh differentiation medium once every 3 days during the period. After 7 days, a microscope was used to observe and confirm that the lipid droplets have formed so as to ensure the cells completely differentiated into adipocytes. […]
Then, a value of glycerol outside the cells was measured by a glycerol assay kit (purchased from Cayman Chemical, No. 10011725, America). […] This kit quantified the value of glycerol outside the cells by measuring the content of a product of a coupling enzyme reaction system capable of generating a bright purple, and used a glycerol standard in the kit to build a standard curve so as to reckon the value of the glycerol outside the cells of a sample. […]

SMILES | lipolysis promoted in comparison with the control group | efficacy for promoting lipolysis in comparison with the control group (result in words) (10 μg of each compound per mL in the well)
C[C@@H]1O[C@@H](O[C@H]2[C@H](Oc3cc(O)c4c(c3)O[C@H](c3ccc(O)cc3)CC4=O)O[C@H](CO)[C@@H](O)[C@@H]2O)[C@H](O)[C@H](O)[C@H]1O [TCI-CA-02] | 8% | 
COc1cc(/C=C/C(=O)O)ccc1O [TCI-CA-01, 4-hydroxy-3-methoxycinnamic acid] |  | effectively promoted
O=C1CC(c2ccc(O)cc2)Oc2cc(O)cc(O)c21 (stereo not drawn) [TCI-CA-03, 5,7-Dihydroxy-2-(4-hydroxyphenyl) chroman-4-one] | 15% | 
